From patent publication US12370170B2, “Composition comprising naphthoquinone-based compound as active ingredient, for preventing or ameliorating fatigue, cachexia, pain, cognitive decline and hematopoietic stem cell reduction which are side effects related to anticancer drug treatment” (NADIANBIO LTD., priority 2016, dated 2025)

Columns and labels:
Type in all cases: in vivo, C57BL/6 mice
[1] = test system: inflammatory cytokines TNF-α, IL-1β, IL-6 and IL-17; assay: Plasma inflammatory cytokines by ELISA in adriamycin animal model; conditions: adriamycin 4 mg/kg/day i.p. ×3; compound 20 mg/kg oral daily from 3 days before; 4 days after final adriamycin; vs adriamycin group
Method: (§1) In this invention, 11 weeks old C57BL/6 mice were used. All the mice used in the experiments of the invention were raised in an aseptic animal room at the temperature of 22˜26 L with the humidity of 55˜60%. The mice were allowed to take general solid feed (SAMTACO Co., Ltd., Korea) and water freely. The mice were adapted for 1 week before the experiment. All the experiments were performed after obtaining approval from the clinical trial management committee in accordance with the laboratory animal care and ethics regulations of Wonkwang University. The mouse animal model of the present invention was treated with different anticancer drugs. […]
Particularly, plasma was isolated from the adriamycin animal model prepared by the same manner as described in Example 4, and the inflammatory cytokines TNF-α (R&D Systems, MTA00B), IL-1β (R&D Systems, MLB00C), IL-6 (R&D Systems, M6000B) and IL-17 (R&D Systems, M1700) were analyzed by ELISA (enzyme-linked immunosorbent assay).
To investigate the regulatory effect of β-lapachone on adriamycin induced inflammatory cytokines, plasma was isolated from the adriamycin animal model prepared by the same manner as described in Example 4, and the inflammatory cytokines TNF-α, IL-1β, IL-6 and IL-17 were analyzed by ELISA.

[2] = test system: inflammatory cytokines TNF-α and IL-1β; assay: Brain inflammatory response: TNF-α and IL-1β in hypothalamus (RT-PCR, ELISA), 4×ACP animal model; conditions: β-lapachone 20 mg/kg oral, ELISA of homogenate
Method: In this invention, 11 weeks old C57BL/6 mice were used. All the mice used in the experiments of the invention were raised in an aseptic animal room at the temperature of 22˜26 L with the humidity of 55˜60%. The mice were allowed to take general solid feed (SAMTACO Co., Ltd., Korea) and water freely. The mice were adapted for 1 week before the experiment. All the experiments were performed after obtaining approval from the clinical trial management committee in accordance with the laboratory animal care and ethics regulations of Wonkwang University. The mouse animal model of the present invention was treated with different anticancer drugs. Particularly, one kind of anticancer drug was administered intraperitoneally one time or more, or several kinds of anticancer drugs were administered once or more times or at different concentrations, leading to the establishment of the animal model of the invention. In the adriamycin-induced animal model, the mice were divided into 6 groups as follows: the control group administered with PBS (Control, 5 mice), the group administered intraperitoneally with adriamycin (4 mg/kg/day) 3 times (ADR, 5 mice), the group administered orally with dunnione or β-lapachone from 3 days before the adriamycin treatment daily (20 mg/kg, 5 mice), and the group administered with dunnione or β-lapachone (20 mg/kg, 5 mice). 4 days after the final adriamycin treatment, analysis of the mice was performed.
The present inventors established an animal model co-treated with three different anticancer drugs in this experiment. The anticancer drugs used herein were adriamycin (ADR), cyclophosphamide (CYP) and paclitaxel (PTX), which were indicated as ACP. […]
A homogenate was prepared with the mouse hypothalamus extracted from the 4×ACP animal model prepared by the same manner as described in Example 8. Then, the expressions of the inflammatory cytokines TNF-α and IL-1β in the brain tissue were analyzed by ELISA.

[3] = test system: orexin; assay: Orexin protein in hypothalamus by ELISA, 4×ACP animal model; conditions: β-lapachone 20 mg/kg oral daily from 3 days before, 2 days after ACP
Method: as §1, with “drugs. Particularly, one kind of anticancer drug was administered intraperitoneally one time or more, or several kinds of anticancer drugs were administered once or more times or at different concentrations, leading to the establishment of the animal model of the invention.” for “drugs.”
To analyze orexin protein in the 4×ACP animal model prepared by the same manner as described in Example 8, the hypothalamus of the mouse was extracted, followed by the preparation of a homogenate. Orexin (MyBioSource, MBS2505504) was analyzed by ELISA to investigate the regulatory effect of β-lapachone on orexin.

Compound: CC1(C)CCC2=C(O1)c1ccccc1C(=O)C2=O [β-lapachone, 3,4-Dihydro-2,2-dimethyl-2H-naphtho(1,2-b) pyran-5,6-dione]
- level of inflammatory cytokines (TNF-α, IL-1β, IL-6, IL-17) in plasma [1]: significantly reduced
- up-regulations of TNF-α and IL-1β in the hypothalamus [2]: significantly suppressed
- orexin reduction in the hypothalamus [3]: significantly restored
